Laboratory results: patent US20250177357A1, “METHODS FOR TREATING HYPERTROPHIC CARDIOMYOPATHY” (priority 2021, published 2025)
Values joined by “and” are separate entries in the source; they are usually repeats but may differ in a detail not shown here. Equal values may be shown once.

What was measured:
[1] = tested on: healthy adults; experiment: Phase 1 pharmacodynamics by echocardiography (LVEF), SAD and MAD cohorts; format: in vivo, human
Method: Echocardiography. For PD assessments of LVEF, echocardiograms for the SAD and MAD cohorts were interpreted by the echocardiography core laboratory and used for all data analysis and dose level review decisions while immediate local interpretation of the echocardiograms was performed for safety monitoring. […] Echocardiograms on day 3 (48 h after dosing) were obtained only if the 24 h LVEF had not returned to near or above baseline, as determined by the investigator. In the MAD cohorts, echocardiograms were obtained on day −1, pre-dose on day 1, and at 1.5 h post dose on days 2, 4, and 9, and at 1.5, 24, and 72 h post dose on day 14 (for the 5-mg and 10-mg cohorts) or on day 17 (for the 7.5-mg cohort). Echocardiograms were obtained 3 days after the last dose (on day 17 or 20) only if the participant's prior LVEF was not near or above baseline, as determined by the investigator.
All participants who received ≥1 dose of study drug and had ≥1 pre-dose and ≥1 post-dose echocardiographic measurement were included in the PD analysis set. […] Descriptive statistics of the echocardiographic parameters were generated using SAS® Version 9.3 or higher.
Dose-response analysis was performed using analysis of covariance (ANCOVA) to identify the least-squares mean difference (aficamten minus placebo). To analyze the impact of drug dose on echocardiographic parameters in the SAD and MAD cohorts, an inferential analysis was conducted on the PD analysis set using linear mixed models for repeated-measures analysis of covariance (ANCOVA). The ANCOVA used baseline value as a covariate, included treatment, time-point, and time-point-by-treatment interaction as fixed effects, and change from baseline as the dependent variable. The unstructured variance-covariance structure was used, and the model accounted for the time-point repeated measures. The ANCOVA analysis was conducted separately for each study part and for each PD parameter. The least-squares means, the difference in least squares means (active minus placebo), and the associated 2-sided 95% CIs were presented for each comparison.
Analyses of concentration ‘bin’ and exposure-response were also performed using ANCOVA. SAS® PROC MIXED was used for all comparative analyses. […] A concentration bin ANCOVA was conducted using linear mixed models for repeated-measures analyses with concentration bin group as a fixed effect, baseline PD parameters as a covariate, change from baseline as the dependent variable, and a random intercept to adjust for the repeated measures. The unstructured variance-covariance structure was used. […] The ANCOVA compared the change in PD parameters between each bin versus the pooled placebo group. The least-squares means, the difference in least squares means (bin group minus placebo), and the associated 2-sided 95% CIs were presented for each comparison. The ANCOVA analysis was conducted separately for each study part. For all time-points at which both PK data and PD measures were available, the time-points were pooled for the analysis. […] From least to greatest, the data were then divided into 5 groups of observations (‘bins’), each consisting of 20% of the data points. Each bin was treated as a separate group.
The above analysis was then repeated using concentration as a continuous variable to estimate the exposure-response trend. Both a random intercept effect and a random concentration effect were added to the ANCOVA. The estimate of the concentration slope, with corresponding 2-sided 95% CIs, and the ANCOVA analyses were presented for each study part.
For all time-points at which both PK data and PD measures were available, the time points were pooled for the analysis. A nominal significance level of 5% was used for statistical comparisons, without adjustment for multiplicity.

[2] = tested on: patients with symptomatic obstructive HCM (oHCM); experiment: Phase 2 trial in oHCM, Cohorts 1 and 2: echocardiography, NYHA class, biomarkers; format: in vivo, human; conditions: for Average ejection fraction: at 10 weeks
Description: Cohort 3 included patients receiving disopyramide.
Since patient characteristics vary substantially in this disease, individualized dose titration to a pharmacodynamics (PD) response (reduction of the LVOT-G to <30 mmHg with preservation of LVEF>50%) was employed to maximize efficacy and safety.
Body weight was ≥45 kg at screening; 4. […] Adequate acoustic windows for echocardiography; 6. Had LVOT-G during screening as follows for Cohorts 1 and 2: (a) resting gradient≥50 mmHg; or (b) resting gradient≥30 mmHg and <50 mmHg with post-Valsalva LVOT-G≥50 mmHg; or as follows for Cohort 3: persistent resting LVOT obstruction (≥30 mmHg) and provoked LVOT obstruction (≥50 mmHg); 7. Left ventricular ejection fraction (LVEF)≥60% at screening; 8. […] Able to complete all screening procedures; and 13. Taking stable doses of disopyramide for >4 weeks prior to screening (Cohort 3 only).
Aortic stenosis or fixed subaortic obstruction; 2. […] Has been treated with septal reduction therapy (surgical myectomy or percutaneous alcohol septal ablation) or has plans for either treatment during the study period; 6. […] Hemoglobin<10.0 g/dL at screening; 18. […] Has received prior treatment with CK-3773274 or is currently receiving mavacamten; 21.
Patients up-titrated to Dose 2 if either of the following conditions were met on echocardiography: (1) resting LVOT-G≥30 mmHg and the biplane LVEF≥50%; or (2) resting LVOT-G<30 mmHg, post-Valsalva LVOT-G≥50 mmHg, and the biplane LVEF≥50%. Otherwise, the patient remains on Dose 1. If LVEF is <50% at Week 2, the patient was down-titrated to placebo.
Patients were escalated to the next higher dose if either of the following conditions were met on echocardiography: (1) resting LVOT-G≥30 mmHg and the biplane LVEF≥50%; or (2) resting LVOT-G<30 mmHg, post-Valsalva LVOT-G≥50 mmHg, and the biplane LVEF≥50%. Otherwise, the patient remained on the same dose. If LVEF was <50% at Week 4, the patient was returned to a prior dose level or to placebo if the patient was on Dose 1.
Echocardiograms obtained every 2 weeks and 2 weeks after the last dose were analyzed for several key structural and physiologic metrics and N-terminal prohormone of brain natriuretic peptide (NT-proBNP).
Initial results from the clinical study included data from two sequentially conducted cohorts, Cohort 1 (n=21) and Cohort 2 (n=20) which randomized treatment of patients 2:1 to CK-274 or placebo. […] Overall, treatment duration for each patient in the study was 10 weeks with an echocardiogram conducted 2 weeks after the last dose.

[3] = SAD 50 mg (n = 11), […] post dose

CCc1nc(-c2ccc3c(c2)CC[C@H]3NC(=O)c2cnn(C)c2)no1 [aficamten, (R)—N-(5-(5-ethyl-1,2,4-oxadiazol-3-yl)-2,3-dihydro-1H-inden-1-yl)-1-methyl-1H-pyrazole-4-carboxamide]
Participants with absolute reductions in LVEF of ≥10% from baseline ([1]; 10-mg MAD cohort): 33% | Participants with absolute reduction in LVEF ≥5% from baseline ([1]; MAD 7.5 mg once daily, 1 of 6): 17% | Participants with absolute reduction in LVEF ≥5% from baseline ([1]; MAD 10 mg once daily, 2 of 6): 33% | Number of participants with reduction in LVEF ≥10% ([1]; MAD 10-mg cohort): 2 | Plasma aficamten concentrations with minimal suppression of LVEF in most participants ([1]; MAD cohorts): ≤ 180 ng/mL | A, mean change from baseline [1, 3]: 2.5 cm/s | E, mean change from baseline [1, 3]: -2.7 cm/s | LV ET, mean change from baseline [1, 3]: 1.9 ms | Participants with absolute reduction in LVEF ≥5% from baseline ([1]; SAD 1-, 10-, or 25-mg cohorts): no participants | Participants with absolute reduction in LVEF ≥5% from baseline ([1]; SAD 3-mg cohort, 1 of 6): 17% | Participants with absolute reduction in LVEF ≥10% ([1]; SAD 40-mg cohort, 1 of 6): 17% | Participants with absolute reduction in LVEF ≥5% from baseline ([1]; SAD 40-mg cohort, 2 of 6): 33% | Participants with reduction in LVEF to <50% ([1]; SAD 50-mg cohort, 2 of 11): 18% | Participants with absolute reduction in LVEF ≥5% from baseline ([1]; SAD 50-mg cohort, 7 of 11): 64% | LVEF of the individual participants with LVEF <50% ([1]; SAD 50-mg cohort, core laboratory assessment): 48.2% and 45.5% | Participants with absolute reduction in LVEF ≥5% from baseline ([1]; SAD 75-mg cohort, 1 of 1): 100% | Participants with reduction in LVEF to <50% ([1]; SAD 75-mg cohort, 1 of 1): 100% | Participants with absolute reduction in LVEF ≥10% ([1]; SAD 75-mg cohort, 1 participant): 100% | Reduction in LVEF to <50% ([1]; any MAD cohort, core laboratory assessment): not observed | Time within which decreases in LVEF to <50% were reversible ([1]; following single doses): ≤ 6 h | Decrease in mean LVEF from baseline, least-squares mean difference vs placebo ([1]; single 50-mg dose, […] post dose, p=0.0001): 5.5% | LVEF reached by 1 participant ([1]; single dose of 75 mg, approximately […] after dosing): 34.1% | Patients with complete hemodynamic response / target goal (resting gradient <30 mmHg and post-Valsalva gradient <50 mmHg) ([2]; Cohort 1 (5, 10, 15 mg), Week 10, 11 out of 14): 79% | Average ejection fraction ([2]; Cohort 1 (n=14), baseline 72.8 (73±6)): 67±9% | Patients with complete hemodynamic response / target goal (resting gradient <30 mmHg and post-Valsalva gradient <50 mmHg) ([2]; Cohort 2 (10, 20, 30 mg), Week 10, 13 out of 14): 93% | Average ejection fraction ([2]; Cohort 2 (n=14), baseline 75.4 (75±6)): 64±8% | Patients converted from NYHA class III to class II or I ([2]; Cohorts 1 and 2): 7 patients | Time of occurrence of reductions in LVOT-G after initiating treatment ([2]; Cohorts 1 and 2): within two weeks | Time of peak reduction in LVOT-G ([2]; Cohorts 1 and 2): within two to six weeks of the end of dose titration | Patients who improved from NYHA class III to I ([2]; pooled aficamten Cohorts 1 and 2): one | LVMI mean difference vs placebo ([2]; week 10, p=0.063): 8.1 g/m^2
